What was measured:
[1] = target: T1, HAT1 (Homo sapiens, UniProt O14929); assay: Scintillation proximity assay; assay type: biochemical; settings: SPA, 40 nM HAT1, […] H4-20 BTN, 1 µM [3H]AcCoA, 30°C, 20 min; for Ki: calculated from Kiapp (Equation 2); for IC50: calculated from Kiapp (Equation 3)
T1 sequence (O14929 20-341): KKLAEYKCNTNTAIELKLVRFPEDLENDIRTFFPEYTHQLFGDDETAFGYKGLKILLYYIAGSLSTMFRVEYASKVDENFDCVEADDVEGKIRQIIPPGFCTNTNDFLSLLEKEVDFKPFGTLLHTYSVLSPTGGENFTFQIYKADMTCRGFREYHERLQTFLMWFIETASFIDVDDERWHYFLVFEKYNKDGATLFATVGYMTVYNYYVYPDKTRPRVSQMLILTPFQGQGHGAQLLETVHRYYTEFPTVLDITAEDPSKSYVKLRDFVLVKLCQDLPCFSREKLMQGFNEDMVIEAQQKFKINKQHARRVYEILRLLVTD

[2] = tested on: p300; settings: cited from earlier work

Ki [1] [µM] | IC50 [1] [µM] | SMILES | IC50 [2] [µM] | Ki ([2]; previous study) [µM]
14.6 | 41.5 | CC(C)(COP(=O)(O)OP(=O)(O)OC[C@H]1O[C@@H](n2cnc3c(N)ncnc32)[C@H](O)[C@@H]1OP(=O)(O)O)[C@@H](O)C(=O)NCCC(=O)NCCS [CoA] |  | 
26.2 | 74.9 | CC(=O)N[C@@H](CCCCNC(=O)CSCCNC(=O)CCNC(=O)[C@H](O)C(C)(C)COP(=O)(O)OP(=O)(O)OC[C@H]1O[C@@H](n2cnc3c(N)ncnc32)[C@H](O)[C@@H]1OP(=O)(O)O)C(N)=O [Lys-CoA, Ac-Lys(CoA)-NH2] | 0.5 | 0.019
